Measured values as given in ChEMBL document CHEMBL3526112, “Brain uptake of the drug of abuse γ-hydroxybutyric acid in rats” (Drug Metab Dispos, 2012).

Columns and labels:
[1] = Drug uptake in human hCMEC/D3 cells at 58 nM at pH 7.4 after 15 to 30 seconds by liquid scintillation counting; type: ADME, cell-based; details: hcmec/d3, pH 7.4, 0.058 µM
[2] = test system: Plasma; experiment: AUC in Sprague-Dawley rat plasma at 400 mg/kg, iv; type: ADME, organism-based; parameters: dose 400 mg/kg, route intravenous; details: in vivo
[3] = Tmax in Sprague-Dawley rat plasma at 400 mg/kg, iv; type: ADME, organism-based; parameters: dose 400 mg/kg, route intravenous
[4] = Renal clearance in Sprague-Dawley rat at 600 mg/kg, iv; type: ADME, organism-based, Kidney; parameters: dose 600 mg/kg, route intravenous; details: in vivo
[5] = test system: Plasma; experiment: Cmax in Sprague-Dawley rat plasma at 600 mg/kg, iv after 30 to 180 mins; type: ADME, organism-based; parameters: dose 600 mg/kg, route intravenous; details: in vivo
[6] = Cmax in Sprague-Dawley rat extracellular fluid of brain at 600 mg/kg, iv; type: ADME, organism-based; parameters: dose 600 mg/kg, route intravenous; details: in vivo
[7] = Tmax in Sprague-Dawley rat plasma at 800 mg/kg, iv; type: ADME, organism-based; parameters: dose 800 mg/kg, route intravenous
[8] = test system: Rattus norvegicus; experiment: Increase of sleep time in iv dosed Sprague-Dawley rat; type: functional, organism-based
[9] = test system: Plasma; experiment: Cmax in Sprague-Dawley rat plasma at 800 mg/kg, iv after 30 to 180 mins; type: ADME, organism-based; parameters: dose 800 mg/kg, route intravenous; details: in vivo
[10] = Tmax in Sprague-Dawley rat extracellular fluid of brain at 600 mg/kg, iv; type: ADME, organism-based; parameters: dose 600 mg/kg, route intravenous
[11] = Tmax in Sprague-Dawley rat extracellular fluid of brain at 800 mg/kg, iv; type: ADME, organism-based; parameters: dose 800 mg/kg, route intravenous
[12] = test system: Rattus norvegicus; experiment: Increase of sleep time in Sprague-Dawley rat at 800 mg/kg, iv; type: functional
[13] = test system: Brain; experiment: AUC in Sprague-Dawley rat extracellular fluid of brain at 400 mg/kg, iv; type: ADME, organism-based; parameters: dose 400 mg/kg, route intravenous; details: in vivo
[14] = test system: Plasma; experiment: Cmax in Sprague-Dawley rat plasma at 400 mg/kg, iv after 30 to 180 mins; type: ADME, organism-based; parameters: dose 400 mg/kg, route intravenous; details: in vivo
[15] = Renal clearance in Sprague-Dawley rat at 400 mg/kg, iv; type: ADME, organism-based, Kidney; parameters: dose 400 mg/kg, route intravenous; details: in vivo
[16] = Tmax in Sprague-Dawley rat plasma at 600 mg/kg, iv; type: ADME, organism-based; parameters: dose 600 mg/kg, route intravenous
[17] = test system: Plasma; experiment: AUC in Sprague-Dawley rat plasma at 800 mg/kg, iv; type: ADME, organism-based; parameters: dose 800 mg/kg, route intravenous; details: in vivo
[18] = Drug uptake in human hCMEC/D3 cells at 10 mM at pH 6.5 up to 10 mins by Michaelis-Menten analysis relative to at pH 7.4; type: ADME, cell-based; details: hcmec/d3, pH 6.5, 10 min, 10000 µM
[19] = test system: Rattus norvegicus; experiment: Increase of sleep time in Sprague-Dawley rat at 400 mg/kg, iv; type: functional
[20] = Ratio of extracellular fluid of brain AUC to plasma AUC in Sprague-Dawley rat at 400 mg/kg, iv; type: ADME, organism-based; parameters: dose 400 mg/kg, route intravenous; details: read-out: Ratio AUC
[21] = Drug uptake in rat RBE4 cells at 10 mM at pH 6.5 up to 10 mins by Michaelis-Menten analysis relative to at pH 7.4; type: ADME, cell-based; details: rbe4, pH 6.5, 10 min, 10000 µM
[22] = Ratio of extracellular fluid of brain AUC to plasma AUC in Sprague-Dawley rat at 800 mg/kg, iv; type: ADME, organism-based; parameters: dose 800 mg/kg, route intravenous; details: read-out: Ratio AUC
[23] = Drug uptake in rat RBE4 cells at pH 7.4 up to 10 mins by Michaelis-Menten analysis; type: ADME, cell-based
[24] = Renal clearance in Sprague-Dawley rat at 800 mg/kg, iv; type: ADME, organism-based, Kidney; parameters: dose 800 mg/kg, route intravenous; details: in vivo
[25] = Drug recovery in Sprague-Dawley rat brain frontal cortex at 400 to 800 mg/kg, iv by microdialysis; type: ADME, organism-based; parameters: dose 400-800 mg/kg, route intravenous; details: in vivo
[26] = test system: Brain; experiment: AUC in Sprague-Dawley rat extracellular fluid of brain at 600 mg/kg, iv; type: ADME, organism-based; parameters: dose 600 mg/kg, route intravenous; details: in vivo
[27] = Drug uptake in rat RBE4 cells at 58 nM at pH 7.4 after 15 to 30 seconds by liquid scintillation counting; type: ADME, cell-based; details: rbe4, pH 7.4, 0.058 µM
[28] = Ratio of extracellular fluid of brain AUC to plasma AUC in Sprague-Dawley rat at 600 mg/kg, iv; type: ADME, organism-based; parameters: dose 600 mg/kg, route intravenous; details: read-out: Ratio AUC
[29] = test system: Plasma; experiment: AUC in Sprague-Dawley rat plasma at 600 mg/kg, iv; type: ADME, organism-based; parameters: dose 600 mg/kg, route intravenous; details: in vivo
[30] = Cmax in Sprague-Dawley rat extracellular fluid of brain at 400 mg/kg, iv; type: ADME, organism-based; parameters: dose 400 mg/kg, route intravenous; details: in vivo
[31] = test system: Plasma; experiment: Cmax in Sprague-Dawley rat plasma at 400 mg/kg, iv; type: ADME, organism-based; parameters: dose 400 mg/kg, route intravenous; details: in vivo
[32] = Cmax in Sprague-Dawley rat extracellular fluid of brain at 800 mg/kg, iv; type: ADME, organism-based; parameters: dose 800 mg/kg, route intravenous; details: in vivo
[33] = Drug uptake in human hCMEC/D3 cells at pH 7.4 up to 10 mins by Michaelis-Menten analysis; type: ADME, cell-based
[34] = Tmax in Sprague-Dawley rat extracellular fluid of brain at 400 mg/kg, iv; type: ADME, organism-based; parameters: dose 400 mg/kg, route intravenous
[35] = test system: Rattus norvegicus; experiment: Increase of sleep time in Sprague-Dawley rat at 600 mg/kg, iv; type: functional
[36] = test system: Brain; experiment: AUC in Sprague-Dawley rat extracellular fluid of brain at 800 mg/kg, iv; type: ADME, organism-based; parameters: dose 800 mg/kg, route intravenous; details: in vivo
[37] = Dissociation constant, pKa of the compound; type: physicochemical

SMILES: O=C([O-])CCCO.[Na+] [SODIUM OXYBATE]
- Drug uptake [1]: Active
- AUC [2]: 66 mg·min/mL
- Tmax [3]: 5 min
- CL renal [4]: 0.0846 L/h/kg
- Cmax [5]: 2400 µM
- Cmax [6]: 550 µM
- Tmax [7]: 5 min
- Activity [8]: Dose-dependent effect
- Cmax [9]: 3400 µM
- Tmax [10]: 50 min
- Tmax [11]: 50 min
- Time [12]: 171 min
- AUC [13]: 4.9 mg·min/mL
- Cmax [14]: 600 µM
- CL renal [15]: 0.093 L/h/kg
- Tmax [16]: 5 min
- AUC [17]: 145 mg·min/mL
- Drug uptake [18]: 126%
- Time [19]: 90.4 min
- Kp [20]: 0.079
- Drug uptake [21]: 126%
- Kp [22]: 0.07
- Km at 10 min ([23]; RBE4 cells, pH 7.4): 23.3 mM
- Vmax ([23]; rbe4, pH 7.4, 10 min): 258 pmol/mg/min
- CL renal [24]: 0.131 L/h/kg
- Drug recovery [25]: 32.5%
- AUC [26]: 8.7 mg·min/mL
- Drug uptake [27]: Active
- Kp [28]: 0.07
- AUC [29]: 124 mg·min/mL
- Cmax [30]: 390 µM
- Cmax [31]: 8400 µM
- Cmax [32]: 660 µM
- Km at 10 min ([33]; hCMEC/D3 cells, pH 7.4): 18.1 mM
- Vmax ([33]; hcmec/d3, pH 7.4, 10 min): 248 pmol/mg/min
- Tmax [34]: 50 min
- Time [35]: 138 min
- AUC [36]: 11.2 mg·min/mL
- pKa [37]: 4.72
